The target of assay [1] is Apoptosis regulator Bcl-2 (Homo sapiens, UniProt P10415). The experiment in a line: Competitive binding affinity to Bcl-2 (unknown origin) preincubated for 30 mins followed by 5-FAM-Bid-BH3 peptide addition measured after 20 mins by fluorescence polarization assay. (In fluorescence polarisation assays a small probe gives low polarisation when free and higher when bound to something large.)

The next assay has as its system PC-3. The experiment in a line: Cytotoxicity against human PC3 cells assessed as inhibition of cell proliferation after 48 hrs by MTT assay. It counts as functional, cell-based. Conditions: PC-3, 48 h. Background: Tetrazolium dyes change colour on reduction, which living cells bring about.
The subject of another assay is K562. Kind of assay: Cytotoxicity against human K562 cells assessed as inhibition of cell proliferation after 48 hrs by MTT assay. To be noted: K562, 48 h. It counts as functional, cell-based.
The subject of another assay is MDA-MB-231. Kind of assay: Cytotoxicity against human MDA-MB-231 cells assessed as inhibition of cell proliferation after 48 hrs by MTT assay. It counts as functional, cell-based. To be noted: MDA-MB-231, 48 h.
The target of a further assay is Bcl-2-like protein 1 (Homo sapiens, UniProt Q07817). Kind of assay: Competitive binding affinity to Bcl-XL (unknown origin) preincubated for 30 mins followed by 5-FAM-Bid-BH3 peptide addition measured after 20 mins by fluorescence polarization assay.
Assay [2] has as its target Induced myeloid leukemia cell differentiation protein Mcl-1 (Homo sapiens, UniProt Q07820). Kind of assay: Competitive binding affinity to Mcl-1 (unknown origin) preincubated for 30 mins followed by 5-FAM-Bid-BH3 peptide addition measured after 20 mins by fluorescence polarization assay.

In ChEMBL document CHEMBL3627718, “Design, synthesis and preliminary bioactivity studies of imidazolidine-2,4-dione derivatives as Bcl-2 inhibitors” (Bioorg Med Chem, 2015) one finds Ki and IC50 data, which are given here for 27 molecules.

Structures are written as SMILES. Bounds are passed on as bounds.

Chain of Apoptosis regulator Bcl-2 (P10415 whole entry): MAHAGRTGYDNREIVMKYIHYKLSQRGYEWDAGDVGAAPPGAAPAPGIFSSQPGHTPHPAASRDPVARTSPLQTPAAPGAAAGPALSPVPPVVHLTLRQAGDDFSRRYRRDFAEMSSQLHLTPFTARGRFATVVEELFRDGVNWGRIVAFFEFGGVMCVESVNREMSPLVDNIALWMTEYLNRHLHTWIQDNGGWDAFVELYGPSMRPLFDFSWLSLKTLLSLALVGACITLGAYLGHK
Chain of Induced myeloid leukemia cell differentiation protein Mcl-1 (Q07820 whole entry): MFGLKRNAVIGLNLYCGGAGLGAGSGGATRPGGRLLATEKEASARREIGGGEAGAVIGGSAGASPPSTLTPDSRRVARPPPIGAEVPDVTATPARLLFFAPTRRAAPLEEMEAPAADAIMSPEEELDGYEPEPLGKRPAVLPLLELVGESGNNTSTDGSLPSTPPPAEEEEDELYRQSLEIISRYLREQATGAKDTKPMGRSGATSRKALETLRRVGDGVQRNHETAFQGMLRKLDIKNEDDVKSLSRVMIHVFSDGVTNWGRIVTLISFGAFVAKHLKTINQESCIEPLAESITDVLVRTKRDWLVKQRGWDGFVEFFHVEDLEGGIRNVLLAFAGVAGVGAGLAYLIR
Chain of Bcl-2-like protein 1 (Q07817 whole entry): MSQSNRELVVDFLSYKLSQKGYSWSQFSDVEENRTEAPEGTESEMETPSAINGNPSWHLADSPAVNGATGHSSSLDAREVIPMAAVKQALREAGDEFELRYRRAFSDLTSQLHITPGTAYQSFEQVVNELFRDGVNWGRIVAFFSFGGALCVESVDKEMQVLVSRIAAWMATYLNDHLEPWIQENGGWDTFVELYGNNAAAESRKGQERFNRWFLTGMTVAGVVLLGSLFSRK

As for `O=C(NS(=O)(=O)c1ccc(Cl)c([N+](=O)[O-])c1)[C@H](Cc1ccccc1)N1C(=O)N[C@@H](Cc2ccccc2)C1=O`, the Ki in assay [1] was over 50 µM.

With `O=C(NS(=O)(=O)c1ccc(Cl)c([N+](=O)[O-])c1)[C@H](Cc1ccccc1)N1C(=O)N[C@@H](Cc2ccc(-c3ccc(Cl)cc3)cc2)C1=O`, the Ki in assay [1] was found to be 3.7 µM; on Bcl-2-like protein 1, 6.1 µM; in assay [2], 2.9 µM. Moreover, the figures for the IC50 with PC-3, in the assay with K562 and in the assay on MDA-MB-231 were 51.7 µM, 39.4 µM and 70.8 µM, respectively.

Consider `O=C(O)[C@H](Cc1ccccc1)N1C(=O)N[C@@H](Cc2ccc(Br)cc2)C1=O`, for which the Ki in assay [1] was over 50 µM.

In assay [1], `COC(=O)[C@@H](NC(=O)[C@H](Cc1ccccc1)N1C(=O)N[C@@H](Cc2ccc(-c3ccc(Cl)cc3)cc2)C1=O)C(C)C` gave a Ki of over 50 µM.

`O=Cc1ccc(-c2ccc(C[C@@H]3NC(=O)N([C@@H](Cc4ccccc4)C(=O)NS(=O)(=O)c4ccc(Cl)c([N+](=O)[O-])c4)C3=O)cc2)cc1`: the Ki in assay [1] is 13 µM; at Bcl-2-like protein 1, over 50 µM; in assay [2] it was 9.3 µM. Further, the figures for the IC50 with PC-3, in the assay with K562 and in the assay on MDA-MB-231 were 63.8 µM, 68.4 µM and 83.4 µM, respectively.

Take `O=C(NS(=O)(=O)c1ccccc1)[C@H](Cc1ccccc1)N1C(=O)N[C@@H](Cc2ccc(Br)cc2)C1=O`: the Ki in assay [1] is over 50 µM.

`CC(=O)Oc1ccc(NC(=O)[C@H](Cc2ccccc2)N2C(=O)N[C@@H](Cc3ccc(-c4ccc(Cl)cc4)cc3)C2=O)cc1`: in assay [1], the Ki was over 50 µM.

Turning to `Cc1ccc(S(=O)(=O)NC(=O)[C@H](Cc2ccccc2)N2C(=O)N[C@@H](Cc3ccc(-c4ccnc(F)c4)cc3)C2=O)cc1`, in assay [1], the Ki is over 50 µM.

Take `Cc1ccc(S(=O)(=O)NC(=O)[C@H](Cc2ccccc2)N2C(=O)/C(=C/c3ccc(-c4ccccc4)cc3)SC2=S)cc1`: in assay [1], the affinity corresponds to a Ki of 0.62 µM. Moreover, the IC50 with PC-3 amounted to 39.8 µM; in the assay on K562 it was 44.9 µM; in the assay on MDA-MB-231, 35.2 µM.

With `O=C(Nc1ccc(O)cc1)[C@H](Cc1ccccc1)N1C(=O)N[C@@H](Cc2ccc(-c3ccc(Cl)cc3)cc2)C1=O`, in assay [1], the Ki was over 50 µM.

Take `O=C(NS(=O)(=O)c1cccc([N+](=O)[O-])c1)[C@H](Cc1ccccc1)N1C(=O)N[C@@H](Cc2ccc(-c3ccc(Cl)cc3)cc2)C1=O`: the Ki in assay [1] is 15 µM; on Bcl-2-like protein 1, over 50 µM; in assay [2] it was over 50 µM. In addition, the IC50 with PC-3 came to 73.3 µM; in the assay with K562, 49 µM; in the assay with MDA-MB-231, 76.4 µM.

On to `CC(C)[C@H](NC(=O)[C@H](Cc1ccccc1)N1C(=O)N[C@@H](Cc2ccc(-c3ccc(Cl)cc3)cc2)C1=O)C(=O)O`, for which the Ki in assay [1] is over 50 µM.

As for `Cc1ccc(S(=O)(=O)NC(=O)[C@H](Cc2ccccc2)N2C(=O)N[C@@H](Cc3ccc(-c4cccc(C)c4)cc3)C2=O)cc1`, the Ki in assay [1] was 13 µM; at Bcl-2-like protein 1, over 50 µM; in assay [2], over 50 µM. The IC50 with PC-3 was found to be 56 µM; with K562 it was 46.9 µM; in the assay on MDA-MB-231, 63.5 µM.

In assay [1], `O=C(O)[C@H](Cc1ccccc1)N1C(=O)N[C@@H](Cc2ccc(-c3ccnc(F)c3)cc2)C1=O` registered a Ki of over 50 µM.

On to `Cc1cccc(-c2ccc(C[C@@H]3NC(=O)N([C@@H](Cc4ccccc4)C(=O)NS(=O)(=O)c4ccccc4)C3=O)cc2)c1`, for which, in assay [1], the Ki was over 50 µM.

In turn, `O=C(NS(=O)(=O)c1ccccc1)[C@H](Cc1ccccc1)N1C(=O)N[C@@H](Cc2ccccc2)C1=O` gave a Ki in assay [1] of over 50 µM.

Molecule `O=C(O)[C@H](Cc1ccccc1)NC(=O)[C@H](Cc1ccccc1)N1C(=O)N[C@@H](Cc2ccc(-c3ccc(Cl)cc3)cc2)C1=O` yielded a Ki in assay [1] of over 50 µM.

Turning to `COC(=O)[C@H](Cc1ccccc1)NC(=O)[C@H](Cc1ccccc1)N1C(=O)N[C@@H](Cc2ccc(-c3ccc(Cl)cc3)cc2)C1=O`, the Ki in assay [1] was over 50 µM.

In assay [1], `Cc1cccc(-c2ccc(C[C@@H]3NC(=O)N([C@@H](Cc4ccccc4)C(=O)O)C3=O)cc2)c1` yielded a Ki of over 50 µM.

`O=C(NS(=O)(=O)c1ccc(Cl)c([N+](=O)[O-])c1)[C@H](Cc1ccccc1)N1C(=O)N[C@@H](Cc2ccc(Br)cc2)C1=O` registered a Ki in assay [1] of over 50 µM.

`Cc1ccc(S(=O)(=O)NC(=O)[C@H](Cc2ccccc2)N2C(=O)N[C@@H](Cc3ccc(-c4ccc(Cl)cc4)cc3)C2=O)cc1` showed a Ki in assay [1] of over 50 µM.

`O=C(NS(=O)(=O)c1ccc(Cl)c([N+](=O)[O-])c1)[C@H](Cc1ccccc1)N1C(=O)N[C@@H](Cc2ccc(-c3ccnc(F)c3)cc2)C1=O` displayed a Ki in assay [1] of over 50 µM.

On to `O=C(NS(=O)(=O)c1ccccc1)[C@H](Cc1ccccc1)N1C(=O)N[C@@H](Cc2ccc(-c3ccc(Cl)cc3)cc2)C1=O`, for which the Ki in assay [1] came to 19 µM.

In the case of `O=C(NS(=O)(=O)c1ccccc1)[C@H](Cc1ccccc1)N1C(=O)N[C@@H](Cc2ccc(-c3ccnc(F)c3)cc2)C1=O`, the Ki in assay [1] was over 50 µM.

Regarding `O=C(O)[C@H](Cc1ccccc1)N1C(=O)N[C@@H](Cc2ccccc2)C1=O`, the Ki in assay [1] is over 50 µM.

In the case of `O=C(O)[C@H](Cc1ccccc1)N1C(=O)N[C@@H](Cc2ccc(-c3ccc(Cl)cc3)cc2)C1=O`, the Ki in assay [1] is over 50 µM.

As for `Cc1cccc(-c2ccc(C[C@@H]3NC(=O)N([C@@H](Cc4ccccc4)C(=O)NS(=O)(=O)c4ccc(Cl)c([N+](=O)[O-])c4)C3=O)cc2)c1`, the Ki in assay [1] came to 4.4 µM; at Bcl-2-like protein 1, 4.7 µM; in assay [2] it was 2.3 µM. For the same molecule, the IC50 was determined as 28.4 µM in the assay on PC-3, 35.1 µM in the assay with K562 and 57.8 µM in the assay with MDA-MB-231.

In general, Ki refers to the equilibrium dissociation constant of an inhibitor or competing ligand from its target. A higher Ki goes with lower affinity. By IC50 is commonly meant the concentration at which inhibition is half-maximal.
